# Key:
# [1] = system: humans; design: method as in Nathan et al., 2013; settings: ref Nathan et al., 2013; cited from earlier work
# [2] = target: T1, human M1 receptor (Homo sapiens, UniProt P11229); test: ERK1/2 phosphorylation, CHO Flp-In human M1 cells; assay type: cell-based
# T1 construct: expressed in transfected cells; host or cells: CHO Flp-In
# T1 sequence (P11229 1-460): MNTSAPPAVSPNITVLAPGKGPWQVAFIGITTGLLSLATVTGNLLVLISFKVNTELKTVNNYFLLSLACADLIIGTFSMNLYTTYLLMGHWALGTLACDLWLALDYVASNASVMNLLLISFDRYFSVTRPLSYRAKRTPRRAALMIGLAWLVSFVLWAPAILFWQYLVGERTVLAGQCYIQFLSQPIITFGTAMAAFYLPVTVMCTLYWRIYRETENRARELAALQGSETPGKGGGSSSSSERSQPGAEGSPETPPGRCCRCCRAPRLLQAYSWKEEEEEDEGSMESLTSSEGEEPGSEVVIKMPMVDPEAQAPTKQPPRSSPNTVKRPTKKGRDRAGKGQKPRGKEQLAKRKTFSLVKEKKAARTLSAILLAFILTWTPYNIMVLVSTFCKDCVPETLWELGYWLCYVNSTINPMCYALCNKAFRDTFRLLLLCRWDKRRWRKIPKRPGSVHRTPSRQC
# Procedure: CHO Flp-In cells stably expressing the human M1 receptor were seeded onto transparent 96-well plates at 20,000 cells/well and grown to confluence. Cells were serum starved overnight prior to the experiment. Prior to the stimulations, cells were washed with 100 μl phosphate-buffered saline and then incubated in serum free F12 medium at 37°C. Cells were stimulated with ligands for 5 minutes at 37°C in a final volume of 200 μl. The stimulations were terminated by rapid aspiration and addition of 50 μl lysis buffer supplemented with blocking reagent per the manufacturer’s instructions, followed by gentle agitation at room temperature for 30 minutes. Subsequently, 16 μl of this lysate was transferred to a 384-well white ProxiPlate (PerkinElmer) and incubated with 4 μl premixed antibody solution for 2 hours at room temperature.
# For the analysis, all families of agonist curves at each pathway were globally fitted to the model with the parameters, basal, Em, and n shared between all agonists. For full agonists, the LogKA was constrained to a value of zero, whereas for partial agonists this was directly estimated by the curve fitting procedure; the Log(τ/KA) parameter was estimated as a unique measure of activity for each agonist.
# [3] = target: T2, human M1 mAChR (Homo sapiens, UniProt P11229); test: IP-One (IP1) accumulation assay, CHO Flp-In human M1 cells; assay type: cell-based; design: expressed in transfected cells; host or cells: CHO Flp-In
# T2 sequence (P11229 1-460): T1 sequence (P11229 1-460)
# Procedure: Stimulation of IP accumulation was determined using the Cisbio IP-One Gq assay kit per the manufacturer’s instructions. […] CHO Flp-In cells stably expressing the human M1 mAChR were grown to confluence in T75 cell culture flasks at 37°C. Cells were washed with warm phosphate-buffered saline and detached using phosphate-buffered saline with 0.1 M EDTA. Detached cells were centrifuged at 1000g and the cells were resuspended in stimulation buffer.
# All IP-One stimulations were terminated by the addition of 3 μl/well IP1-d2 solution, followed by 3 μl/well anti–IP1-cryptate solution and incubation for 1 hour at room temperature with shaking.
# Functional concentration-response curves were fitted according to a four-parameter logistic equation (to determine minimum and maximum asymptotes, LogEC50, and slope; GraphPad Prism 6). […] In the absence of antagonist ([B] = 0), this equation becomes the standard four-parameter logistic equation for fitting agonist concentration-response data.
# [4] = target: T2, human M1 mAChR; test: [3H]-NMS binding interaction studies with BQCA; design: expressed in transfected cells; host or cells: CHO Flp-In; settings: increasing concentrations of BQCA
# Procedure: (§1) Prior to the experiment, cells were washed with 100 μl phosphate-buffered saline. […] Binding was terminated by rapid aspiration followed by two washes with 200 μl ice-cold 0.9% NaCl. Bound radioactivity was determined by liquid scintillation (Ultima Gold; PerkinElmer, Boston, MA) counting. Nonspecific binding was determined in the presence of 10 μM atropine.
# [5] = target: [35S]-GTPγS Gαq binding in rat cortex membranes; test: Native tissue GTPγ[35S] binding assay (Gαq antibody capture); assay type: biochemical
# Procedure: GTPɣ-[^35S] ([^35S]ɣ[guanosine-5′-O-(3-[^35S]thio)triphosphate] binding in rat membranes was determined in triplicate using an antibody capture technique in 96-well plate format (DeLapp et al., 1999). Native rat membranes were prepared as follows. All procedures were performed at 4°C. Ten to fifteen milliliters of sucrose buffer (10 mM HEPES, 1 mM EGTA, 1 mM dithiothreitol, 10% sucrose, and one tablet/50 ml Complete Protease Inhibitor Cocktail, pH 7.4) was added to each tissue sample and homogenized for 10 strokes using an electric IKA RW20 homogenizer (800 rpm) (IKA, Staufen, Germany) with glass homogenizer. The homogenate was centrifuged at 1000g for 10 minutes at 4°C and the supernatant collected. The pellet was rehomogenized and centrifuged again as above and the supernatant pooled and centrifuged at 11,000g for 20 minutes at 4°C. The resulting pellet was suspended in 40 ml final storage buffer (10 mM HEPES, 1 mM EGTA, 1 mM MgCl2, and 1 mM dithiothreitol, pH 7.4) and centrifuged at 27,000g for 20 minutes at 4°C. The supernatant was removed and the final pellet was suspended in 2 ml final storage buffer. The protein concentration was measured using the Bradford method (Coomassie Plus, Bio-Rad protein assay kit; Bio-Rad, Hercules, CA) with bovine gamma globulin standards. […] Plates were counted for 1 minute/well using a Wallac MicroBeta Trilux scintillation counter (PerkinElmer). […]
# [6] = target: T3, humanized M1 DREADD (Homo sapiens, UniProt P11229, A196G/Y106C); test: Equilibrium [3H]-NMS binding, CHO Flp-In cell monolayers, M1 DREADD
# T3 construct: expressed in transfected cells; host or cells: CHO Flp-In
# Procedure: as §1
# Inhibition binding data were curve-fit using GraphPad Prism 6 to derive the potency (IC50) of the test compound. The equilibrium dissociation constant (KI) of the test compound was then calculated with the Cheng–Prusoff equation: KI = IC50/[1 + ([L]/KD)] using the KD value derived separately from saturation binding studies.
# [7] = normalized to reference ligand ACh
# [8] = transduction coefficient, wild-type M1 mAChR
# T3 sequence (P11229 whole entry Y106C/A196G): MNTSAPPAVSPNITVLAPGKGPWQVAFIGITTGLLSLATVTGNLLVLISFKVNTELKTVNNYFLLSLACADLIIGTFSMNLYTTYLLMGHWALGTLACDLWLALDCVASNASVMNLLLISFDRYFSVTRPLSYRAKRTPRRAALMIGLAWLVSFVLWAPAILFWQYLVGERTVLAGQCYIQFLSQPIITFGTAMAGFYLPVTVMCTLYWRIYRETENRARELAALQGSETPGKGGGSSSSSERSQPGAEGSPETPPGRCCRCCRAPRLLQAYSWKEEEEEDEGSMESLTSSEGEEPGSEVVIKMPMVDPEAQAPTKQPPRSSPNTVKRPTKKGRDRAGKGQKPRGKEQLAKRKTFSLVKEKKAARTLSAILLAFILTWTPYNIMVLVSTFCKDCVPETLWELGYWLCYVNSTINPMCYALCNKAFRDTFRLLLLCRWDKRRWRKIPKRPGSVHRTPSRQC
compound,measurement,setting,value
"Cc1cc(F)c2[nH]c(=O)n(C3CCN(C4CCOCC4)CC3)c2c1 [GSK1034702, 7-fluoro-5-methyl-3-[1-(oxan-4-yl)piperidin-4-yl]-1H-benzimidazol-2-one]",adverse effects,[1],induced gastrointestinal adverse effects
same,effect on cognitive function,[1],positive effects on cognitive function
same,ERK1/2 Phosphorylation ΔLog10(τ/KA),[2]; [7],0.1 ± 0.1
same,ERK1/2 Phosphorylation Log10(τ/KA),[2]; [8],7.2 ± 0.1
same,Emax,"[3]; % of the maximal response elicited by ACh, read-out: IP1 accumulation, maximal response relative to ACh",~90%
same,IP1 Emax,[3]; CHO Flp-In human M1 cells,90.1 ± 2.9
same,EC50,"[3]; CHO Flp-In human M1 cells, read-out: IP1 pEC50 (converted)",79.4 nM
same,IP1 Accumulation ΔLog10(τ/KA),[3]; [7],0.3 ± 0.2
same,IP1 Accumulation Log10(τ/KA),[3]; [8],7.4 ± 0.2
same,modulation by BQCA of the displacement of [^3H]-NMS,[4],not modulated
same,"pEC50, [^35S]-GTPγS Gαq binding",[5],6.7 ± 0.1
same,"[^35S]-GTPγS Gαq binding, maximum relative to oxotremorine-M",[5]; % of maximum elicited by oxotremorine-M,approximately 37%
same,Ki,[6],1000 nM

# From article PMC5963591, “Bitopic Binding Mode of an M1 Muscarinic Acetylcholine Receptor Agonist Associated with Adverse Clinical Trial Outcomes” (Molecular Pharmacology, 2018)
